Test results reported in patent US20250223281A1, “ANTIDIABETIC COMPOUNDS AND COMPOSITIONS” (REZUBIO PHARMACEUTICALS CO., LTD, priority 2022, published 2025).
pEC50: −log10 of the molar value.

Molecular target: T1, GPR40 (Homo sapiens, UniProt O14842)
T1 construct: expressed in transfected cells; host or cells: HEK293 cells stably expressing GPR40 (Hygromycin selection)
Test: IP1 accumulation assay in HEK293 cells stably expressing GPR40
Assay type: cell-based
Procedure, shortened: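 HEK293 cells stably expressing human GPR40 were incubated with compounds (10-point, 3-fold dilution series) for 2 h at 37 °C, then IP1 was detected by HTRF (665/615 nm ratio). Effect was normalised to DMSO blank and AMG-1638 as 100%, and EC50 was derived from dose curves.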

[1] = IP1 accumulation, HEK293 cells stably expressing GPR40, 2 hours at 37° C., % effect relative to AMG-1638, table of Biological Example 1
[2] = Table A-8 (additional examples), obtained by methods of Biological Example 1
[3] = Tables A-1a to A-7b (structure-property relationship), obtained by methods of Biological Example 1

T1 sequence (O14842 whole entry): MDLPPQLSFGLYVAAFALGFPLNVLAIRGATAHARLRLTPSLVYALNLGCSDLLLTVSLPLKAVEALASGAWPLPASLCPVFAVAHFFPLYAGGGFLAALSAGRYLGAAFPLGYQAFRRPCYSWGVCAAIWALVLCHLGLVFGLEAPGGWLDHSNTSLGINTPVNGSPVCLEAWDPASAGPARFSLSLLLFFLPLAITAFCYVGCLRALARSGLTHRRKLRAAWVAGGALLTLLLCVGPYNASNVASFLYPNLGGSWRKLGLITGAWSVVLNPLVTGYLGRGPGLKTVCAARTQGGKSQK

Compound | pEC50 [1] | pEC50 [2] | pEC50 [3]
COc1ccc(C(=O)N(CC(C)(C)CCn2cc(CCCCCCCCCCCCCCCC(=O)NCC[N+](C)(CCC(=O)NCCN)CCC(=O)NCCN)nn2)c2cccc(C)n2)c(N2CCC(COc3cc([C@@H](CC(=O)O)C4CC4)ccn3)CC2)c1 [Example 202] | 9.80 | 9.80 | 9.80
COc1ccc(C(=O)N(CC(C)(C)CCCCCCn2cc(CCCCCCCCC(=O)NCCCN(CC(=O)O)CC(=O)O)nn2)c2cccc(C)n2)c(N2CCC(COc3cc([C@@H](CC(=O)O)C4CC4)ccn3)CC2)c1 [Example 203] | 7.92 | – | –
COc1ccc(C(=O)N(CC(C)(C)CCCCCCn2cc(CCCCCCCCCC(=O)NCCCN(CC(=O)O)CC(=O)O)nn2)c2cccc(C)n2)c(N2CCC(COc3cc([C@@H](CC(=O)O)C4CC4)ccn3)CC2)c1 [Example 204] | 8.15 | – | –
COc1ccc(C(=O)N(CC(C)(C)CCCCCCn2cc(CCCCCCCCCCCC(=O)NCCCN(CC(=O)O)CC(=O)O)nn2)c2cccc(C)n2)c(N2CCC(COc3cc([C@@H](CC(=O)O)C4CC4)ccn3)CC2)c1 [Example 205] | 9.03 | – | –
COc1ccc(C(=O)N(CC(C)(C)CCCCCCn2cc(CCCCCCCCCCCCCC(=O)NCCCN(CC(=O)O)CC(=O)O)nn2)c2cccc(C)n2)c(N2CCC(COc3cc([C@@H](CC(=O)O)C4CC4)ccn3)CC2)c1 [Example 206] | 9.23 | – | –
COc1ccc(C(=O)N(CC(C)(C)CCCCCCn2cc(CCCCCCCCC(=O)NCCC[N+](C)(CC(=O)[O-])CC(=O)O)nn2)c2cccc(C)n2)c(N2CCC(COc3cc([C@@H](CC(=O)O)C4CC4)ccn3)CC2)c1 (stereo partly drawn) [Example 207] | 7.69 | – | –
COc1ccc(C(=O)N(CC(C)(C)CCCCCCn2cc(CCCCCCCCCC(=O)NCCC[N+](C)(CC(=O)[O-])CC(=O)O)nn2)c2cccc(C)n2)c(N2CCC(COc3cc([C@@H](CC(=O)O)C4CC4)ccn3)CC2)c1 (stereo partly drawn) [Example 208] | 8.29 | – | –
COc1ccc(C(=O)N(CC(C)(C)CCCCCCn2cc(CCCCCCCCCCCC(=O)NCCC[N+](C)(CC(=O)[O-])CC(=O)O)nn2)c2cccc(C)n2)c(N2CCC(COc3cc([C@@H](CC(=O)O)C4CC4)ccn3)CC2)c1 (stereo partly drawn) [Example 209] | 9.00 | – | –
COc1ccc(C(=O)N(CC(C)(C)CCCCCCn2cc(CCCCCCCCCCCCCC(=O)NCCC[N+](C)(CC(=O)[O-])CC(=O)O)nn2)c2cccc(C)n2)c(N2CCC(COc3cc([C@@H](CC(=O)O)C4CC4)ccn3)CC2)c1 (stereo partly drawn) [Example 210] | 9.27 | – | –
COc1ccc(C(=O)N(CC(C)(C)CCCCCCn2cc(CCCCC(=O)NCCC[N+](C)(CC(=O)[O-])CC(=O)O)nn2)c2cccc(C)n2)c(N2CCC(COc3cc([C@@H](CC(=O)O)C4CC4)ccn3)CC2)c1 (stereo partly drawn) [Example 211] | 7.18 | – | –
COc1ccc(C(=O)N(CC(C)(C)CCCCCCn2cc(CCCCCCC(=O)NCCC[N+](C)(CC(=O)[O-])CC(=O)O)nn2)c2cccc(C)n2)c(N2CCC(COc3cc([C@@H](CC(=O)O)C4CC4)ccn3)CC2)c1 (stereo partly drawn) [Example 212] | 6.84 | – | –
COc1ccc(C(=O)N(CC(C)(C)CCn2cc(CCCCCCCCC(=O)NCCCN(CC(=O)O)CC(=O)O)nn2)c2cccc(C)n2)c(N2CCC(COc3cc([C@@H](CC(=O)O)C4CC4)ccn3)CC2)c1 [Example 215] | 5.87 | – | 5.87
COc1ccc(C(=O)N(CC(C)(C)CCn2cc(CCCCCCCCCCCCCCCC(=O)NCCCN(CC(=O)O)CC(=O)O)nn2)c2cccc(C)n2)c(N2CCC(COc3cc([C@@H](CC(=O)O)C4CC4)ccn3)CC2)c1 [Example 216] | 9.32 | – | 9.32
COc1ccc(C(=O)N(CC(C)(C)CCn2cc(CCCCCCCCC(=O)NCCC[N+](C)(CC(=O)[O-])CC(=O)O)nn2)c2cccc(C)n2)c(N2CCC(COc3cc([C@@H](CC(=O)O)C4CC4)ccn3)CC2)c1 (stereo partly drawn) [Example 217] | 6.17 | – | 6.17
COc1ccc(C(=O)N(CC(C)(C)CCn2cc(CCCCCCCCCCCCCCCC(=O)NCCC[N+](C)(CC(=O)[O-])CC(=O)O)nn2)c2cccc(C)n2)c(N2CCC(COc3cc([C@@H](CC(=O)O)C4CC4)ccn3)CC2)c1 (stereo partly drawn) [Example 218] | 9.36 | – | 9.36
COc1ccc(C(=O)N(CC(C)(C)CCn2cc(CCCCCCCCC=CCCCCCCCCC(=O)NCCC[N+]34CCN(CC3)CC4)nn2)c2cccc(C)n2)c(N2CCC(COc3cc([C@@H](CC(=O)O)C4CC4)ccn3)CC2)c1 [Example 221] | 9.01 | – | –

Further lines, results first:

pEC50 [1] | pEC50 [2] | pEC50 [3] | Compound
7.07 | 7.08 | 7.07 | COc1ccc(C(=O)N(CC(C)(C)CCn2cc(CCCCCCCCCC(=O)NCCN(CCC(=O)NCCN)CCC(=O)NCCN)nn2)c2cccc(C)n2)c(N2CCC(COc3cc([C@@H](CC(=O)O)C4CC4)ccn3)CC2)c1 [Example 197]
9.77 | 9.77 | 9.77 | COc1ccc(C(=O)N(CC(C)(C)CCn2cc(CCCCCCCCCCCCCCCC(=O)NCCN(CCC(=O)NCCN)CCC(=O)NCCN)nn2)c2cccc(C)n2)c(N2CCC(COc3cc([C@@H](CC(=O)O)C4CC4)ccn3)CC2)c1 [Example 198]
< 5.00 | – | < 5.00 | COc1ccc(C(=O)N(CC(C)(C)CCn2cc(CCCCC(=O)NCC[N+](C)(CCC(=O)NCCN)CCC(=O)NCCN)nn2)c2cccc(C)n2)c(N2CCC(COc3cc([C@@H](CC(=O)O)C4CC4)ccn3)CC2)c1 [Example 199]
< 5.00 | – | < 5.00 | COc1ccc(C(=O)N(CC(C)(C)CCn2cc(CCCCCCC(=O)NCC[N+](C)(CCC(=O)NCCN)CCC(=O)NCCN)nn2)c2cccc(C)n2)c(N2CCC(COc3cc([C@@H](CC(=O)O)C4CC4)ccn3)CC2)c1 [Example 200]
7.35 | 7.35 | 7.35 | COc1ccc(C(=O)N(CC(C)(C)CCn2cc(CCCCCCCCCC(=O)NCC[N+](C)(CCC(=O)NCCN)CCC(=O)NCCN)nn2)c2cccc(C)n2)c(N2CCC(COc3cc([C@@H](CC(=O)O)C4CC4)ccn3)CC2)c1 [Example 201]
6.45 | – | – | COc1ccc(F)c(-c2ccc(COc3cccc([C@@H](CC(=O)O)C4CC4)c3)cc2CC(C)(C)Cn2cc(CCCCC(=O)NCCC[N+](C)(CC(=O)[O-])CC(=O)O)nn2)c1 (stereo partly drawn) [Example 213]
< 5.00 | – | – | COc1ccc(F)c(-c2ccc(COc3cccc([C@@H](CC(=O)O)C4CC4)c3)cc2CC(C)(C)Cn2cc(CCCCC(=O)NCCN(CCC(=O)NCCN)CCC(=O)NCCN)nn2)c1 [Example 219]
< 5.00 | – | < 5.00 | COc1ccc(F)c(-c2ccc(COc3cccc([C@@H](CC(=O)O)C4CC4)c3)cc2CC(C)(C)Cn2cc(CCCCCCCCC(=O)NCCN(CCC(=O)NCCN)CCC(=O)NCCN)nn2)c1 [Example 220]
